Where “and” joins values, the source holds several entries; their conditions need not be identical. Identical values can stand only once. Toxic doses and inconclusive results are not listed. Rule as the data show it: active = T/C of 150% or more; inactive = T/C below 125%.
Tested on: L1210 leukemia ip in BDF1 mice, survival T/C
Assay: NCI In Vivo Anticancer Drug Screen. Data for tumor model L1210 Leukemia (intraperitoneal) in B6D2F1 (BDF1) mice
Conditions: endpoint: mean survival time, higher = longer survival
How it was run: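 Each compound was tested against a transplantable tumor grown in mice. The endpoint was survival, with treated animals benchmarked against vehicle controls as a simple ratio.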

[1] = dose: 100.0 mg/kg/injection, schedule: Q04DX003 (ip), vehicle: Klucel (hydroxypropylcellulose) (HPC)
[2] = dose: 100.0 mg/kg/injection, schedule: Q01DX001 (ip), vehicle: carboxymethylcellulose (CMC)
[3] = dose: 200.0 mg/kg/injection, schedule: Q01DX001 (ip), vehicle: carboxymethylcellulose (CMC)
[4] = dose: 400.0 mg/kg/injection, schedule: Q01DX001 (ip), vehicle: carboxymethylcellulose (CMC)
[5] = dose: 100.0 mg/kg/injection, schedule: Q01DX009 (ip), vehicle: Klucel (hydroxypropylcellulose) (HPC)
[6] = dose: 200.0 mg/kg/injection, schedule: Q01DX009 (ip), vehicle: Klucel (hydroxypropylcellulose) (HPC)
[7] = dose: 400.0 mg/kg/injection, schedule: Q01DX009 (ip), vehicle: Klucel (hydroxypropylcellulose) (HPC)
[8] = dose: 100.0 mg/kg/injection, schedule: Q01DX009 (ip), vehicle: saline
[9] = dose: 100.0 mg/kg/injection, schedule: Q01DX009 (ip), vehicle: saline with Tween-80
[10] = dose: 100.0 mg/kg/injection, schedule: Q04DX003 (ip), vehicle: saline with Tween-80
[11] = dose: 200.0 mg/kg/injection, schedule: Q01DX009 (ip), vehicle: saline with Tween-80
[12] = dose: 200.0 mg/kg/injection, schedule: Q04DX003 (ip), vehicle: saline with Tween-80
[13] = dose: 100.0 mg/kg/injection, schedule: Q01DX001 (ip), vehicle: saline
[14] = dose: 200.0 mg/kg/injection, schedule: Q01DX001 (ip), vehicle: saline
[15] = dose: 400.0 mg/kg/injection, schedule: Q01DX001 (ip), vehicle: saline

Measured: T/C

O=C(CF)CCl
inactive: dose: 0.87 mg/kg/injection, schedule: Q01DX009 (ip), vehicle: Klucel (hydroxypropylcellulose) (HPC) 102 % of control | dose: 1.75 mg/kg/injection, schedule: Q01DX009 (ip), vehicle: Klucel (hydroxypropylcellulose) (HPC) 105 % of control | dose: 3.5 mg/kg/injection, schedule: Q01DX009 (ip), vehicle: Klucel (hydroxypropylcellulose) (HPC) 110 % of control | dose: 14.0 mg/kg/injection, schedule: Q04DX003 (ip), vehicle: saline 96 % of control | dose: 28.0 mg/kg/injection, schedule: Q04DX003 (ip), vehicle: saline 112 % of control

CCOP(=O)(CCl)NC12CC3CC(CC(C3)C1)C2 (centres undefined)
inactive: [1] 96 % of control | dose: 200.0 mg/kg/injection, schedule: Q04DX003 (ip), vehicle: Klucel (hydroxypropylcellulose) (HPC) 100 % of control

COc1ccccc1CN1CCCN(Cc2ccccc2OC)C1
inactive: [2] 97 % of control | [3] 105 % of control | [4] 97 % of control

N#CC1(c2ccccc2)OC1(c1ccccc1)c1ccccc1 (centres undefined)
inactive: [5] 89 % of control | dose: 100.0 mg/kg/injection, schedule: Q04DX002 (ip), vehicle: Klucel (hydroxypropylcellulose) (HPC) 88 % of control | [6] 91 % of control | dose: 200.0 mg/kg/injection, schedule: Q04DX002 (ip), vehicle: Klucel (hydroxypropylcellulose) (HPC) 92 % of control | [7] 88 % of control

Cc1cn(CCC(N)C(=O)O)c(=O)[nH]c1=O (centres undefined)
inactive: [8] 103 % of control | dose: 100.0 mg/kg/injection, schedule: Q04DX002 (ip), vehicle: saline 106 % of control | dose: 200.0 mg/kg/injection, schedule: Q01DX009 (ip), vehicle: saline 117 % of control | dose: 200.0 mg/kg/injection, schedule: Q04DX002 (ip), vehicle: saline 89 % of control | dose: 400.0 mg/kg/injection, schedule: Q01DX009 (ip), vehicle: saline 95 % of control | dose: 400.0 mg/kg/injection, schedule: Q04DX002 (ip), vehicle: saline 113 % of control

COc1ccccc1N=Nc1c(O)n(-c2ccccc2C)c(=S)n(-c2ccccc2)c1=O
inactive: dose: 25.0 mg/kg/injection, schedule: Q04DX003 (ip), vehicle: Klucel (hydroxypropylcellulose) (HPC) 107 % of control | dose: 50.0 mg/kg/injection, schedule: Q04DX003 (ip), vehicle: Klucel (hydroxypropylcellulose) (HPC) 105 % of control | dose: 100.0 mg/kg/injection, schedule: Q01DX001 (ip), vehicle: Klucel (hydroxypropylcellulose) (HPC) 101 % of control | [1] 107 % of control | dose: 200.0 mg/kg/injection, schedule: Q01DX001 (ip), vehicle: Klucel (hydroxypropylcellulose) (HPC) 95 % of control

O=C(O)/C=C/c1c2ccc(=O)c(O)c-2oc2c(O)c(O)ccc12
inactive: dose: 10.0 mg/kg/injection, schedule: Q04DX003 (ip), vehicle: other 94 % of control | dose: 20.0 mg/kg/injection, schedule: Q04DX003 (ip), vehicle: other 98 % of control | dose: 40.0 mg/kg/injection, schedule: Q04DX003 (ip), vehicle: other 88 % of control | dose: 50.0 mg/kg/injection, schedule: Q04DX003 (ip), vehicle: other 106 % of control | dose: 80.0 mg/kg/injection, schedule: Q04DX003 (ip), vehicle: other 89 % of control | dose: 100.0 mg/kg/injection, schedule: Q04DX003 (ip), vehicle: other 107 % of control

CC(=O)[O][Pb]([CH2]C(C)C)([CH2]C(C)C)[CH2]C(C)C
inactive: dose: 1.5 mg/kg/injection, schedule: Q01DX009 (ip), vehicle: Klucel (hydroxypropylcellulose) (HPC) 97 % of control | dose: 3.0 mg/kg/injection, schedule: Q01DX001 (ip), vehicle: Klucel (hydroxypropylcellulose) (HPC) 91 % of control | dose: 3.0 mg/kg/injection, schedule: Q01DX009 (ip), vehicle: Klucel (hydroxypropylcellulose) (HPC) 95 % of control | dose: 6.0 mg/kg/injection, schedule: Q01DX001 (ip), vehicle: Klucel (hydroxypropylcellulose) (HPC) 96 % of control | dose: 6.0 mg/kg/injection, schedule: Q01DX009 (ip), vehicle: Klucel (hydroxypropylcellulose) (HPC) 95 % of control | dose: 6.25 mg/kg/injection, schedule: Q01DX009 (ip), vehicle: Klucel (hydroxypropylcellulose) (HPC) 96 % of control | dose: 12.0 mg/kg/injection, schedule: Q01DX001 (ip), vehicle: Klucel (hydroxypropylcellulose) (HPC) 92 % of control | dose: 12.5 mg/kg/injection, schedule: Q04DX002 (ip), vehicle: Klucel (hydroxypropylcellulose) (HPC) 96 % of control

COc1cc(/C=N\NC(=O)OC(C)(C)C)cc(OC)c1OC
inactive: dose: 50.0 mg/kg/injection, schedule: Q01DX009 (ip), vehicle: saline with Tween-80 95 % of control | [9] 97 % of control | [10] 87 % of control | [11] 97 % of control | [12] 91 % of control

CCCCC(CCN(C)C)(CNC(=O)CN(CC)CC)c1cccc2ccccc12 (centres undefined)
inactive: dose: 25.0 mg/kg/injection, schedule: Q01DX009 (ip), vehicle: saline 91 % of control | dose: 50.0 mg/kg/injection, schedule: Q01DX009 (ip), vehicle: saline 91 % of control | [8] 90 % of control | dose: 100.0 mg/kg/injection, schedule: Q04DX003 (ip), vehicle: saline 100 % of control

CC(=O)CC(=O)n1c(=O)cc(C)c2ccccc21
inactive: dose: 75.0 mg/kg/injection, schedule: Q04DX003 (ip), vehicle: saline with Tween-80 117 % of control | dose: 150.0 mg/kg/injection, schedule: Q04DX003 (ip), vehicle: saline with Tween-80 98 % of control | dose: 300.0 mg/kg/injection, schedule: Q04DX003 (ip), vehicle: saline with Tween-80 98 % of control

CCOC(=O)c1c[nH]c2c(Cl)cccc2c1=O
inactive: dose: 50.0 mg/kg/injection, schedule: Q01DX001 (ip), vehicle: saline 97 % of control | [13] 100 % of control | [14] 94 % of control | [15] 94 % of control

C1CCC(CCNCCC2CCCCC2)CC1
inactive: dose: 5.0 mg/kg/injection, schedule: Q01DX001 (ip), vehicle: saline 102 % of control | dose: 10.0 mg/kg/injection, schedule: Q01DX001 (ip), vehicle: saline 102 % of control | dose: 20.0 mg/kg/injection, schedule: Q01DX001 (ip), vehicle: saline 104 % of control

OCc1cc2ccccc2[nH]1
inactive: [9] 100 % of control | [10] 100 % of control | [11] 100 % of control | [12] 96 % of control | dose: 400.0 mg/kg/injection, schedule: Q01DX009 (ip), vehicle: saline with Tween-80 101 % of control | dose: 400.0 mg/kg/injection, schedule: Q04DX003 (ip), vehicle: saline with Tween-80 100 % of control

Cn1c2nc(=O)[nH]c(=O)c-2cc2ccccc21
inactive: [13] 100 % of control | [14] 94 % of control | [15] 97 % of control

CCOP(=O)(CCO)OCC
inactive: dose: 50.0 mg/kg/injection, schedule: Q01DX005 (ip), vehicle: saline 106 % of control | dose: 100.0 mg/kg/injection, schedule: Q01DX005 (ip), vehicle: saline 106 % of control | dose: 200.0 mg/kg/injection, schedule: Q01DX005 (ip), vehicle: saline 95 % of control | dose: 400.0 mg/kg/injection, schedule: Q01DX005 (ip), vehicle: saline 104 % of control

CC(=Nc1ccccc1)C1=C(O)C(Cc2ccccc2)NC1=O (centres undefined)
inactive: dose: 50.0 mg/kg/injection, schedule: Q01DX001 (ip), vehicle: carboxymethylcellulose (CMC) 101 % of control | [2] 103 % of control | dose: 178.0 mg/kg/injection, schedule: Q01DX001 (ip), vehicle: carboxymethylcellulose (CMC) 101 % of control and 102 % of control | [3] 120 % of control | dose: 267.0 mg/kg/injection, schedule: Q01DX001 (ip), vehicle: carboxymethylcellulose (CMC) 101 % of control and 109 % of control | [4] 101 % of control and 117 % of control

O=C(CC1=CCCCC1)c1ccccc1
inactive: [5] 103 % of control | [6] 100 % of control | [7] 97 % of control

O=C(C[n+]1ccc2ccccc2c1)c1ccc2ccccc2c1
inactive: dose: 6.25 mg/kg/injection, schedule: Q01DX009 (ip), vehicle: saline with Tween-80 95 % of control | dose: 12.5 mg/kg/injection, schedule: Q01DX009 (ip), vehicle: saline with Tween-80 87 % of control | dose: 25.0 mg/kg/injection, schedule: Q01DX009 (ip), vehicle: saline with Tween-80 90 % of control

Reference: PubChem BioAssay AID248 (DTP/NCI, 2004)
